Assay results as given in US10472395B2, “Cyclic peptide analogs and conjugates thereof” (Sirenas LLC, priority 2015, dated 2019).
pIC50: −log10 of the molar value. Numbered stars: 1 amine (or outer) side, 2 acyl side, 3 side chain; on linkers, the order of the positions; unused ones are H or OH. Bridge positions count the residues as written; N and C are the ends. Square brackets hold non-standard residues; d marks the D form. Peptide text beside a SMILES is read from it. ξ: configuration not given here. X8 = C/C=C(\C)[C@@H](O[*:2])[C@@H](C)CC/C=C(\C)C(=O)[*:1]; dNMeF = CN[C@H](Cc1ccccc1)C(=O)O; Ile(3ξ) = CCC(C)[C@H](N)C(=O)O; dHica = CC(C)C[C@@H](O)C(=O)O; dNMeA = CN[C@H](C)C(=O)O; Sar = CNCC(=O)O

Columns and labels:
[1] = test system: BT-474 human mammary gland ductal carcinoma cells; test: Inhibitory response of test compounds against BT-474 cells (Cell Titer-Glo, 72 h); type: cell-based; details: Homo sapiens
Description: (§1) BT-474 human mammary gland ductal carcinoma cells were seeded in a clear polystyrene 96-well microculture plate (Corning® Costar® 96-well flat bottom plate, Cat.#3997) in a total volume of 90 μL/well. After 24 hours of incubation in a humidified incubator at 37° C. with 5% CO2 and 95% air, 10 μL of 10×, serially diluted test agents in growth medium were added to each well (10 pt dose response curve, highest concentration 10 μM of test agent). After 72 hours of culture in a humidified incubator at 37° C., in an atmosphere of 5% CO2 and 95% air, the plated cells and Cell Titer-Glo® (Promega G7571) reagents were brought to room temperature to equilibrate for 30 minutes. 100 μL of Cell Titer-Glo® reagent was added to each well. The plate was shaken for two minutes and then left to equilibrate for ten minutes. The media/Cell Titer-Glo® reagent was transferred to a white polystyrene 96-well microculture plate (Corning® Costar® 96-well flat bottom plate, Cat.#3917) before reading luminescence on a Tecan GENios microplate reader.
(§2) Percent inhibition of cell growth was calculated relative to untreated control wells. The IC50 value for the test agents was determined using Prism 6.05 by curve-fitting of the data using the following four parameter-logistic equation:
(§3) [formula] where Top is the maximal % of control absorbance, Bottom is the minimal % of control absorbance at the highest agent concentration, Y is the % of control absorbance, X is the agent concentration, IC50 is the concentration of agent that inhibits cell growth by 50% compared to the control cells, and n is the slope of the curve.

HCC1954 cells = test: Inhibitory response of test compounds against HCC1954 cells (method analogous to BT-474); type: cell-based; details: Homo sapiens
Description: as §1, §2, §3
Inhibitory response of test compounds against HCC1954 cells was determined using a method analogous to that used for BT-474 cells.

| Structure (SMILES) | pIC50 [1] | pIC50 (HCC1954 cells) |
| --- | --- | --- |
| C/C=C(\C)[C@H]1OC(=O)[C@@H](C)N(C)C(=O)[C@H](C(C)CC)NC(=O)CN(C)C(=O)[C@@H](Cc2ccccc2)N(C)C(=O)[C@H](C)NC(=O)[C@@H](CC(C)C)OC(=O)/C(C)=C/CC[C@@H]1C (stereo partly shown) [Compound 100] ([dHica]A[dNMeF][Sar][Ile(3ξ)][dNMeA]; linker N-C via X8) | > 7.70 | 6.70 to 7.70 |
| C/C=C(\C)[C@H]1OC(=O)[C@@H](C)NC(=O)[C@H]([C@H](C)CC)NC(=O)CN(C)C(=O)[C@@H](Cc2ccc(F)cc2)N(C)C(=O)[C@H](C)NC(=O)[C@@H](CC(C)C)OC(=O)/C(C)=C/C[C@H](OCSC)[C@@H]1C [Compound 101] | > 7.70 | > 7.70 |
| C/C=C(\C)[C@H]1OC(=O)[C@@H](C)NC(=O)[C@H](C(C)CC)NC(=O)CN(C)C(=O)[C@@H](Cc2ccc(O)cc2)N(C)C(=O)[C@H](C)NC(=O)[C@@H](CC(C)C)OC(=O)/C(C)=C/CC[C@@H]1C (stereo partly shown) [Compound 102] | > 7.70 | 6.70 to 7.70 |
| C/C=C(\C)[C@H]1OC(=O)[C@@H](C)NC(=O)[C@H]([C@H](C)CC)NC(=O)CN(C)C(=O)[C@@H](Cc2ccccc2)N(C)C(=O)[C@H](C)NC(=O)[C@@H](CC(C)C)OC(=O)/C(C)=C/C[C@H](OC(=O)NCCCCCCNC(=O)OC(C)(C)C)[C@@H]1C [Compound 105] | > 7.70 | > 7.70 |
| C/C=C(\C)[C@H]1OC(=O)[C@@H](C)NC(=O)[C@H]([C@H](C)CC)NC(=O)CN(C)C(=O)[C@@H](Cc2ccccc2)N(C)C(=O)[C@H](C)NC(=O)[C@@H](CC(C)C)OC(=O)/C(C)=C/C[C@H](OC(=O)NCCCOCCOCCOCCCNC(=O)OC(C)(C)C)[C@@H]1C [Compound 106] | > 7.70 | > 7.70 |
| C/C=C(\C)[C@H]1OC(=O)[C@@H](C)NC(=O)[C@H](C(C)CC)NC(=O)CN(C)C(=O)[C@@H](Cc2ccccc2)N(C)C(=O)[C@H](C)NC(=O)[C@@H](CC(C)C)OC(=O)/C(C)=C/C[C@H](CC(=O)NCCCCCCN)[C@@H]1C (stereo partly shown) [Compound 107] | > 7.70 | 6.70 to 7.70 |
| C/C=C(\C)[C@H]1OC(=O)[C@@H](C)NC(=O)[C@H](C(C)CC)NC(=O)CN(C)C(=O)[C@@H](Cc2ccccc2)N(C)C(=O)[C@H](C)NC(=O)[C@@H](CC(C)C)OC(=O)/C(C)=C/C[C@H](OC(=O)NCCCOCCOCCOCCCN)[C@@H]1C (stereo partly shown) [Compound 108] | 6.70 to 7.70 | 5.00 to 6.70 |
| C/C=C(\C)[C@H]1OC(=O)[C@@H](C)NC(=O)[C@H]([C@H](C)CC)NC(=O)CN(C)C(=O)[C@@H](Cc2ccccc2)N(C)C(=O)[C@H](C)NC(=O)[C@@H](CC(C)C)OC(=O)/C(C)=C/C[C@H](CC(=O)N(C)CCN(C)C(=O)c2ccc(C=O)cc2)[C@@H]1C [Compound 110] | > 7.70 | 6.70 to 7.70 |
| C/C=C(\C)[C@H]1OC(=O)[C@@H](C)NC(=O)[C@H]([C@H](C)CC)NC(=O)CN(C)C(=O)[C@@H](Cc2ccccc2)N(C)C(=O)[C@H](C)NC(=O)[C@@H](CC(C)C)OC(=O)/C(C)=C/C[C@H](OC(=O)NCCCCCCNC(=O)CCOCCOCCOCCOCCNC(=O)c2ccc(C=O)cc2)[C@@H]1C [Compound 111] | < 5.00 | < 5.00 |
| C/C=C(\C)[C@H]1OC(=O)[C@@H](C)NC(=O)[C@H]([C@H](C)CC)NC(=O)CN(C)C(=O)[C@@H](Cc2ccccc2)N(C)C(=O)[C@H](C)NC(=O)[C@@H](CC(C)C)OC(=O)/C(C)=C/C[C@H](OC(=O)NCCCOCCOCCOCCCN=[N+]=N)[C@@H]1C [Compound 113] | > 7.70 | > 7.70 |
| C/C=C(\C)[C@H]1OC(=O)[C@@H](C)NC(=O)[C@H]([C@H](C)CC)NC(=O)CN(C)C(=O)[C@@H](Cc2ccccc2)N(C)C(=O)[C@H](C)NC(=O)[C@@H](CC(C)C)OC(=O)/C(C)=C/C[C@H](OC(=O)N(C)CCN(C)C=O)[C@@H]1C [Compound 114] | > 7.70 | 6.70 to 7.70 |
| C/C=C(\C)[C@H]1OC(=O)[C@@H](C)NC(=O)[C@H]([C@H](C)CC)NC(=O)CN(C)C(=O)[C@@H](Cc2ccccc2)N(C)C(=O)[C@H](C)NC(=O)[C@@H](CC(C)C)OC(=O)/C(C)=C/C[C@H](OC(=O)N(C)CCN(C)S(=O)(=O)c2ccc([N+](=O)[O-])cc2)[C@@H]1C [Compound 115] | > 7.70 | > 7.70 |
| C/C=C(\C)[C@H]1OC(=O)[C@@H](C)NC(=O)[C@H]([C@H](C)CC)NC(=O)CN(C)C(=O)[C@@H](Cc2ccccc2)N(C)C(=O)[C@H](C)NC(=O)[C@@H](CC(C)C)OC(=O)/C(C)=C/C[C@H](OC(=O)NCCCOCCOCCOCCCNC(=O)c2ccc(C(C)=O)cc2)[C@@H]1C [Compound 116] | > 7.70 | 6.70 to 7.70 |
| C/C=C(\C)[C@H]1OC(=O)[C@@H](C)NC(=O)[C@H]([C@H](C)CC)NC(=O)CN(C)C(=O)[C@@H](Cc2ccccc2)N(C)C(=O)[C@H](C)NC(=O)[C@@H](CC(C)C)OC(=O)/C(C)=C/C[C@H](OC(=O)N(C)CCN(C)C(=O)OCC[Si](C)(C)C)[C@@H]1C [Compound 117] | 6.70 to 7.70 | 6.70 to 7.70 |
